According to patent US20060281695A1, “Control of parasites in animals by N-[(phenyloxy)phenyl]-1,1,1-trifluoromethanesulfonamide and N-[(phenylsulfanyl)phenyl]-1,1,1-trifluoromethanesulfonamide derivatives” (priority 2005, published 2006):

Assays:
[1] = test system: cat flea (Ctenocephalides felis); experiment: Ctenocephalides felis adulticide assay: dose response on treated glass surface (LC50, 24 hours); format: in vivo; settings: adult cat fleas, 24 h mortality, probit analysis
Procedure: (§1) The LC50 value is the concentration, expressed as μg/cm^2, that was required to kill 50% of the sample of cat fleas on contact with the tested compound. Certain tests are also reported as the percent of a sample of cat fleas that were killed at a concentration of 1.26 μg/cm^2 (“% mortality”), for the compounds tested in this way.
c) Ctenocephalides felis Adulticide Assay: C. felis dose response The purpose of this example is to determine the LC50 when cat fleas are contacted with a glass surface treated with sample compounds or formulations prepared as described above. Mortality of fleas is defined as follows: fleas are considered dead if they don't move or are on their sides and unable to walk or right themselves. LC50: Lethal Concentration 50— concentration of glass surface treatment at which 50% of the cat fleas are killed.
(§2) The test species employed was the cat flea (Ctenocephalides felis). The strain used was obtained from external suppliers as pupae and held in the laboratory under testing conditions until the adults had emerged. Fifteen (15) fleas were used in a minimum of four replicates for each dose level (total of 60 fleas per dose level). The insects were selected to be in the adult life stage, aged between 3 and 7 days post emergence.
The compounds to be tested were dissolved in acetone just prior to testing. Samples of compounds were stored in a refrigerator (5±1° C.) unless otherwise specified. During the mortality testing, the temperature was maintained at 25±1° C. Humidity was maintained at 75±5%. The base (area=159 mm^2) of a 100 mL glass Erlenmeyer (conical) flask provided the treatment surface. Flasks were pre-treated with Coatasil™ glass treatment to maximise bio-availability of test compounds by preventing them from binding to the glass surface.
Six dose levels (concentrations) of test sample, in the form of a serial dilution, were derived from a pilot study and covered a range that produced very low to very high mortality. The base of the 100 mL Erlenmeyer flask was treated with 0.5 mL of test sample in acetone and gently swirled. This volume was sufficient to cover the base of the flask. Flasks were left to dry for 24 hours before flea exposure. Adult cat fleas were lightly anaesthetised by cooling and then placed into a sorting chamber, which allowed fleas to revive and jump into the Erlenmeyer flasks. Fifteen (15) adult cat fleas were collected in each flask. The top of the flasks were then covered in Parafilm™ and small holes made to allow gas exchange. A 0.5 mL volume of acetone was applied to the base of an Erlenmeyer flask and the testing proceeded in the same manner described above. Cat fleas in the treatment containers were held under testing conditions for 24 hours. Mortality resulting from the treatments was recorded at 24 hours. […] 3rd ed. Cambridge Univ. Press, London (1971)].
(§3) In Table 7, provided below, are listed the Haemonchus contortus LD99 values (measured in micrograms/mL), the Ctenocephalides felis rapid screening values (measured in % mortality), the Ctenocephalides felis LC50 values (measured in micrograms/cm^2) and the Rhipicephalus sanguineus rapid screening values (measured in % mortality) for selected compounds in accordance with the present invention.

[2] = test system: Haemonchus contortus; experiment: Haemonchus contortus larvacidal (larval development) assay, LD99; format: in vitro
Procedure: The LD99 value is the dose, expressed as […], that was required to kill 99% of a sample of Haemonchus contortus.
a) Haemonchus Contortus Larvacidal Assay:
The effect of compounds on larval development was determined in the assay described by Gill et al. [International Journal of Parasitology 25:463-470 (1995)]. Briefly, in this assay, nematode eggs are applied to the surface of an agar matrix containing the test compound and then allowed to develop through to the L3, infective stage (6 days). The wells for each dilution of every compound (from highest to lowest concentration) are inspected to determine the well number corresponding to the lowest concentration at which development is inhibited in 99% of the nematode larvae present (LD99). Because well numbers correspond to a two-fold serial dilution of each compound, a titre (dilution factor) is generated as 2^n−1, where n is the well number. By dividing the highest concentration tested by the titre an LD99 value can be obtained, representing the concentration required to inhibit development in 99% of the nematode larvae present. The compounds supplied as solid and viscous liquids are dissolved in DMSO. Twelve serial one-half dilutions in DMSO solution are prepared from the stock solution, each of which is then diluted 1/5 with water. Aliquots (10 μl) of each dilution are transferred to the bioassay plates to give a final concentration range of 0.024 to 50 μg/ml.
as §3

[3] = test system: Brown Dog Tick (Rhipicephalus sanguineus); experiment: Topical application on brown dog ticks, single dose screen (% mortality at 24 hours); format: in vivo; settings: adult brown dog ticks, topical 1 μL in acetone on abdomen, single dose 10 μg per tick
Procedure: d) Topical Application On Brown Dog Ticks (Rhipicephalus sanguineus)
The aim of the test is to determine the presence of significant acaricidal activity in sample compounds or formulations when applied topically on brown dog ticks. A tick is defined as dead if it gives no apparent response when: (i) touched lightly and (ii) then observed for 1 minute. To assess the experimental compound for acaricidal activity, a single dose level is chosen based on known results from previous experiments with a commercially available active reference compound.
In the present example, both permethrin and fipronil were employed as reference compounds. The insect species tested was the Brown Dog Tick (Rhipicephalus sanguineus). Mixed sex adult ticks were used for tests. The strain used was cultured from a field strain and supplied as unfed adult ticks (mixed sex). Ticks were maintained in controlled conditions (temp. 18°±2° C., humidity 75±5% RH).
Test compounds (formulations or active ingredients) were stored in a refrigerator (5±1° C.) unless otherwise specified. The temperature was maintained at 25±1° C. and the humidity was ambient. The screening dose chosen was higher than that known kill 90% of insects (LD90) using the reference compound. In the case of topical application of active compounds on adult ticks, the reference compound was fipronil and the dose chosen was 10 μg of active per tick (=10 μg of fipronil/1 μl of acetone). Ticks were each treated on the abdomen with 1 μL of a single dose level of test sample in acetone; ten ticks were treated with solvent only (acetone) in each test. Tests were replicated 4 times (total of 40 ticks treated). Ticks were held in recovery containers maintained under appropriate rearing conditions for 24 hours. Mortality resulting from the treatments was recorded at 24 hours. Pooled 24 hour mortality data were converted to percentages.
as §3

[4] = test system: cat flea (Ctenocephalides felis); experiment: Ctenocephalides felis adulticide assay: single dose screen on treated glass surface (% mortality at 1.26 μg/cm^2, 24 hours); format: in vivo; settings: for mortality at 1.26 µg/cm2, 1.26 µg/cm2: Ctenocephalides felis, 24 h, read-out: Ctenocephalides felis Mortality (%) 24 h; for Ctenocephalides felis Mortality (%) 24 h: in vivo
Procedure: as §1
b) Ctenocephalides felis Adulticide Assay: C.felis single dose screen
Mortality of fleas is the primary endpoint in the assay. […] The concentration chosen (1.26 μg/cm^2) is higher than that known to kill 90% of cat fleas (LC90) using the reference compound, permethrin.
as §2, with “against a single concentration” for “for each dose”, “(approximately” for “(total of”, “fleas).” for “fleas per dose level).”
The compounds to be tested were supplied as solids and were prepared in acetone as described below prior to testing. Samples were stored in a refrigerator (5±1° C.) unless otherwise specified.
During the mortality testing, the temperature was maintained at 25±1° C. Humidity was maintained at 75±5%. The base (area=159 mm^2) of a 100 mL glass Erlenmeyer (conical) flask provided the treatment surface. Flasks were pre-treated with Coatasil™ glass treatment to maximise bio-availability of test compounds by preventing them from binding to glass the surface. The base of the 100 mL Erlenmeyer flask was treated with 0.5 mL of test sample in acetone and gently swirled. This volume was sufficient to cover the base of the flask. Flasks were left to dry for 24 hours before flea exposure.
Adult cat fleas were placed into a sorting chamber, which allowed fleas to jump into the Erlenmeyer flasks. Fifteen (15) adult cat fleas were collected in each flask. The top of the flasks were then covered in Parafilm™ and small holes were made to allow gas exchange. A 0.5 mL volume of acetone as a solvent control was applied to the base of an Erlenmeyer flask and the testing proceeded in the same manner described above. […] Pooled 24 hour mortality data were converted to percentages and are summarized by Table 4, below.
as §3

## O=S(=O)(Nc1ccc(Cl)cc1Oc1ccc(Cl)cc1Cl)C(F)(F)F [Compound 1, N-[4-Chloro-2-(2,4-dichlorophenoxy)phenyl]-1,1,1-trifluoromethanesulfonamide]
[1]
  Ctenocephalides felis LC50: 0.32 μg/cm^2
[2]
  Haemonchus contortus LD99: 1.5 µg/mL
[3]
  Rhipicephalus sanguineus Mortality (%) 24 h: 68%
[4]
  mortality at 1.26 µg/cm2, 1.26 µg/cm2: 100%

## O=S(=O)(Nc1ccc(C(F)(F)F)cc1Oc1cccc(C(F)(F)F)c1)C(F)(F)F [Compound 55]
[1]
  Ctenocephalides felis LC50: 1.88 μg/cm^2
[4]
  Ctenocephalides felis Mortality (%) 24 h: 100%

## O=S(=O)(Nc1ccc(Cl)cc1Oc1ccc(F)c(F)c1)C(F)(F)F [Compound 16]
[1]
  Ctenocephalides felis LC50: 0.78 μg/cm^2
[2]
  Haemonchus contortus LD99: 11.0 µg/mL
[4]
  Ctenocephalides felis Mortality (%) 24 h: 100%

## O=S(=O)(Nc1ccc(Cl)cc1Oc1cccc(F)c1)C(F)(F)F [Compound 25]
[1]
  Ctenocephalides felis LC50: 0.73 μg/cm^2
[4]
  Ctenocephalides felis Mortality (%) 24 h: 100%

## O=S(=O)(Nc1ccc(Cl)cc1Sc1ccc(F)cc1)C(F)(F)F [Compound 20]
[1]
  Ctenocephalides felis LC50: 0.13 μg/cm^2
[2]
  Haemonchus contortus LD99: 13.0 µg/mL
[3]
  Rhipicephalus sanguineus Mortality (%) 24 h: 95%
[4]
  Ctenocephalides felis Mortality (%) 24 h: 100%

## O=S(=O)(Nc1ccc(Cl)cc1Oc1ccccc1C(F)(F)F)C(F)(F)F [Compound 2]
[1]
  Ctenocephalides felis LC50: 0.19 μg/cm^2
[2]
  Haemonchus contortus LD99: 5.5 µg/mL
[3]
  Rhipicephalus sanguineus Mortality (%) 24 h: 28%
[4]
  Ctenocephalides felis Mortality (%) 24 h: 100%

## O=S(=O)(Nc1ccc(Cl)cc1Oc1ccccc1F)C(F)(F)F [Compound 14]
[1]
  Ctenocephalides felis LC50: 0.05 μg/cm^2
[2]
  Haemonchus contortus LD99: 13.0 µg/mL
[3]
  Rhipicephalus sanguineus Mortality (%) 24 h: 98%
[4]
  Ctenocephalides felis Mortality (%) 24 h: 100%

## O=S(=O)(Nc1ccc(Cl)cc1Sc1ccc(Cl)cc1)C(F)(F)F [Compound 12, N-[4-Chloro-2-((4-chlorophenyl)sulfanyl)phenyl]-1,1,1-trifluoromethanesulfonamide]
[1]
  Ctenocephalides felis LC50: 0.15 μg/cm^2
[2]
  Haemonchus contortus LD99: 2.8 µg/mL
[3]
  Rhipicephalus sanguineus Mortality (%) 24 h: 50%
[4]
  mortality at 1.26 µg/cm2, 1.26 µg/cm2: 100%

## O=S(=O)(Nc1ccc(Cl)cc1Oc1ccc(F)cc1F)C(F)(F)F [Compound 4]
[1]
  Ctenocephalides felis LC50: 0.27 μg/cm^2
[2]
  Haemonchus contortus LD99: 12.0 µg/mL
[3]
  Rhipicephalus sanguineus Mortality (%) 24 h: 83%
[4]
  Ctenocephalides felis Mortality (%) 24 h: 98%

## O=S(=O)(Nc1cc(C(F)(F)F)ccc1Oc1ccc(F)cc1)C(F)(F)F [Compound 30]
[1]
  Ctenocephalides felis LC50: 0.71 μg/cm^2
[4]
  Ctenocephalides felis Mortality (%) 24 h: 100%

## O=S(=O)(Nc1cc(Cl)ccc1Oc1ccc(Cl)cc1Cl)C(F)(F)F [Compound 8]
[1]
  Ctenocephalides felis LC50: 0.59 μg/cm^2
[2]
  Haemonchus contortus LD99: 2.75 µg/mL
[4]
  Ctenocephalides felis Mortality (%) 24 h: 62%

## O=S(=O)(Nc1ccc(Cl)cc1Sc1cccc(Cl)c1)C(F)(F)F [Compound 15]
[1]
  Ctenocephalides felis LC50: 0.30 μg/cm^2
[2]
  Haemonchus contortus LD99: 5.5 µg/mL
[4]
  Ctenocephalides felis Mortality (%) 24 h: 100%

## O=S(=O)(Nc1ccc(Cl)cc1Oc1ccc(Cl)cc1)C(F)(F)F [Compound 5]
[1]
  Ctenocephalides felis LC50: 0.66 μg/cm^2
[2]
  Haemonchus contortus LD99: 11.0 µg/mL
[4]
  Ctenocephalides felis Mortality (%) 24 h: 100%

## O=S(=O)(Nc1ccc(Cl)cc1Oc1ccc(F)cc1)C(F)(F)F [Compound 26]
[1]
  Ctenocephalides felis LC50: 0.33 μg/cm^2
[4]
  Ctenocephalides felis Mortality (%) 24 h: 100%

## O=S(=O)(Nc1ccc(Cl)cc1Sc1ccccc1)C(F)(F)F [Compound 59]
[1]
  Ctenocephalides felis LC50: 0.97 μg/cm^2
[4]
  Ctenocephalides felis Mortality (%) 24 h: 100%

## CCc1ccccc1Oc1cc(Cl)ccc1NS(=O)(=O)C(F)(F)F [Compound 38]
[1]
  Ctenocephalides felis LC50: 0.75 μg/cm^2
[4]
  Ctenocephalides felis Mortality (%) 24 h: 95%

## O=S(=O)(Nc1cc(C(F)(F)F)ccc1Oc1cccc(C(F)(F)F)c1)C(F)(F)F [Compound 9]
[1]
  Ctenocephalides felis LC50: 0.09 μg/cm^2
[2]
  Haemonchus contortus LD99: 2.5 µg/mL
[3]
  Rhipicephalus sanguineus Mortality (%) 24 h: 25%
[4]
  Ctenocephalides felis Mortality (%) 24 h: 94%

## O=S(=O)(Nc1ccc(Cl)cc1Sc1ccccc1F)C(F)(F)F [Compound 68]
[1]
  Ctenocephalides felis LC50: 0.59 μg/cm^2
[3]
  Rhipicephalus sanguineus Mortality (%) 24 h: 55%
[4]
  Ctenocephalides felis Mortality (%) 24 h: 100%

## Cc1ccccc1Oc1cc(Cl)ccc1NS(=O)(=O)C(F)(F)F [Compound 21]
[1]
  Ctenocephalides felis LC50: 0.12 μg/cm^2
[2]
  Haemonchus contortus LD99: 15.0 µg/mL
[3]
  Rhipicephalus sanguineus Mortality (%) 24 h: 90%
[4]
  Ctenocephalides felis Mortality (%) 24 h: 100%
